Earlier results as cited in patent publication EP4219603A1, “A METHOD FOR PURIFICATION OF ORGANIC WATER-SOLUBLE POLYMERS FROM HYDROPHOBIC CONTAMINANTS” (Ustav experimentálnej fyziky SAV, v.v.i., priority 2022, dated 2023).

Details: logarithm of the octanol/water partition coefficient; contaminants from Examples 1 to 9 identified in GC-MS HS-SPME elugrams

Compared with `CCCCC(CC)COC(=O)c1ccccc1` (stereo not drawn) [2-ethylhexyl benzoate], `CC(C)COC(=O)c1ccccc1C(=O)OCC(C)C` [di-isobutyl phtalate] is lower in “log P” value: 5.73 for the first, 4.46 for the second.

Compared with `CCCCCCCCCCCC(C)=O` [2-tridecanone], `CCCCCCCCCCCC(=O)OCC` [ethyl dodecanoate] is higher in “log P” value: 5.16 for the first, 6.00 for the second.

First: c1ccc(-c2ccccc2)cc1 [bifenyl]
Second: Clc1cc(Cl)cc(-c2ccccc2)c1 [dichlorobiphenyl (PCB 14)]
The “log P” value of the first is lower: 4.00 for the first, 5.41 for the second.

Compared with `CC(C)c1ccc2c(c1)CC[C@H]1[C@](C)(CO)CCC[C@]21C` [dehydroabietol], `C[C@]12CC[C@H]3C(=CCc4cc(OC(=O)c5ccccc5)ccc43)[C@@H]1CCC2=O` [equilin benzoate] is lower in “log P” value: 6.35 for the first, 5.63 for the second.

First: CCCCCCCCCCCC [dodecane]
Second: CCCCCCCCCCCCC [tridecane]
The “log P” value of the first is lower: 7.13 for the first, 7.66 for the second.

First: CCCCCCCCCCCCCCCC [hexadecane]
Second: CCCCCCCCCCCCCCCCCC [octadecane]
The “log P” value of the first is lower: 9.26 for the first, 10.32 for the second.

First: CCCCCCCCCCCC(=O)OC(C)C [isopropyl dodecanoate]
Second: CCCCCCCCCCCCCC(=O)OC(C)C [isopropyl tetradecanoate]
The “log P” value of the first is lower: 6.37 for the first, 7.43 for the second.

For `CCCCCCCCCCCCCC` [tetradecane], the “log P” value is listed as 8.19.

Same assay, conditions: logarithm of the octanol/water partition coefficient; model contaminants added to the polymer

First: Clc1cc(Cl)cc(-c2ccccc2)c1 [dichlorobiphenyl (PCB 14)]
Second: CCCCCCCCCCCC(=O)OCC [ethyl dodecanoate]
The “log P” value of the first is lower: 5.41 for the first, 6.00 for the second.

In the case of `CCCCCCCCCCCCCCCCCC` [octadecane], the “log P” value is listed as 10.32.
